This is an account of results in PubChem BioAssay (NCI).

Among the test systems are CCRF-CEM leukemia; HOP-62 NSCLC; SR leukemia; RPMI-8226 leukemia; NCI-H522 lung; MDA-N; EKVX NSCLC; UO-31 renal; OVCAR-3 ovarian; SNB-75 CNS; TK-10 renal; NCI-H226 lung.
Common to all, as to assay: NCI-60 cell line screen, 48 h

Structures are written as SMILES.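 Tested at 5 concentrations; 48 h exposure; 96-well plates; endpoints linearly interpolated, else capped at highest concentration. The concentration for full growth arrest is given as TGI.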 Where a SMILES comes first, the peptide text is derived from it. The star is where a group is joined. Cbz = O=C(OCc1ccccc1)*

Take `CCCCCCc1cc2cc(C(=O)Nc3ccc(F)cc3)c(=N)oc2cc1O`: the TGI with CCRF-CEM leukemia was found to be 3.8 µM; with HOP-62 NSCLC, 12.2 µM; in the assay with SR leukemia it was 8.23 µM; in the assay on RPMI-8226 leukemia it was 4.96 µM; in the assay with NCI-H522 lung, 6.13 µM; in the assay on MDA-N, 28.1 µM. The TGI with EKVX NSCLC is 21.2 µM; with UO-31 renal it was 18.4 µM; in the assay on OVCAR-3 ovarian it was more than 100 µM.
Take `COc1ccc(C2c3cc4c(cc3OC(N3CCOCC3)C2C)OCO4)cc1` (stereo unspecified): the TGI was more than 78.2 µM with CCRF-CEM leukemia; more than 72.2 µM in the assay with HOP-62 NSCLC; more than 76.1 µM in the assay with SR leukemia; 61.7 µM with RPMI-8226 leukemia; more than 100 µM with SNB-75 CNS; more than 100 µM in the assay with TK-10 renal. Moreover, the TGI is more than 82 µM in the assay with NCI-H522 lung; more than 82 µM with MDA-N; more than 100 µM in the assay on EKVX NSCLC; more than 100 µM with UO-31 renal; more than 86.1 µM with OVCAR-3 ovarian.
As to `C=C1CCCCCCCCC/C=C/1SCCCSC`, the TGI with HOP-62 NSCLC, in the assay with SR leukemia, in the assay on RPMI-8226 leukemia, in the assay with TK-10 renal, in the assay with NCI-H522 lung and with MDA-N was more than 100 µM throughout. In addition, the TGI in the assay with EKVX NSCLC, in the assay on UO-31 renal, in the assay with NCI-H226 lung and with OVCAR-3 ovarian was more than 100 µM in each case.
As for `CC1(C)O[C@H]2OC(CO)C(N=[N+]=[N-])[C@H]2O1` (stereo partly specified), the TGI in the assay on CCRF-CEM leukemia, in the assay with HOP-62 NSCLC, in the assay on SR leukemia, in the assay on RPMI-8226 leukemia, in the assay with SNB-75 CNS and with TK-10 renal was more than 100 µM throughout. Moreover, the TGI in the assay on NCI-H522 lung, with MDA-N, with EKVX NSCLC, in the assay with UO-31 renal and with OVCAR-3 ovarian was more than 100 µM throughout.
Turning to `CN1CC=C(c2c(N)nc(N)[nH]c2=O)CC1`, the TGI with CCRF-CEM leukemia, in the assay with HOP-62 NSCLC, with SR leukemia, in the assay on RPMI-8226 leukemia, in the assay with SNB-75 CNS and with NCI-H522 lung was more than 100 µM throughout. Also, the TGI with MDA-N, in the assay with EKVX NSCLC, with UO-31 renal, in the assay with NCI-H226 lung and with OVCAR-3 ovarian was more than 100 µM throughout.
Regarding `Cc1ccc(S(=O)(=O)C2=C(C(C)C)N=NC2(C)C)cc1`, the TGI is more than 100 µM with HOP-62 NSCLC; more than 100 µM with SR leukemia; 53.8 µM in the assay on RPMI-8226 leukemia; more than 100 µM in the assay with SNB-75 CNS; more than 100 µM with TK-10 renal; more than 100 µM in the assay with NCI-H522 lung. The TGI in the assay on MDA-N, in the assay on EKVX NSCLC, in the assay with UO-31 renal, in the assay with NCI-H226 lung and in the assay with OVCAR-3 ovarian was more than 100 µM each time.
On to `O=c1[nH]nc(Cc2ccc(Cl)cc2)n1/N=C/c1cccs1`, for which the TGI is more than 100 µM in the assay with CCRF-CEM leukemia; 55.2 µM with HOP-62 NSCLC; more than 100 µM with SR leukemia; more than 100 µM in the assay with RPMI-8226 leukemia; 49.9 µM with SNB-75 CNS; 68.8 µM with NCI-H522 lung. Moreover, the TGI with MDA-N, in the assay with EKVX NSCLC, with UO-31 renal, in the assay on NCI-H226 lung and in the assay on OVCAR-3 ovarian was more than 100 µM each time.
Regarding `O=C1/C(=C\c2cccc(Oc3ccccc3)c2)S(=O)(=O)C(c2ccccc2)N1c1cccc(Cl)c1` (stereo unspecified), the TGI in the assay on CCRF-CEM leukemia is 83.9 µM; in the assay on HOP-62 NSCLC it was more than 100 µM; in the assay on SR leukemia it was more than 100 µM; in the assay on RPMI-8226 leukemia, 78.8 µM; with SNB-75 CNS, more than 100 µM; in the assay on TK-10 renal it was more than 100 µM. The TGI with NCI-H522 lung, with MDA-N, with EKVX NSCLC, with UO-31 renal and in the assay with OVCAR-3 ovarian was more than 100 µM each time.
Consider `COC(=O)N[C@H](C(=O)NC(OCc1ccccc1)C1COC(C)(C)O1)C(C)O[Si](C)(C)C(C)(C)C` (stereo partly specified), for which the TGI in the assay on CCRF-CEM leukemia, in the assay on HOP-62 NSCLC, in the assay on SR leukemia, with RPMI-8226 leukemia, with SNB-75 CNS and with TK-10 renal was more than 100 µM in each case. Also, the TGI in the assay on MDA-N, in the assay with EKVX NSCLC and in the assay on UO-31 renal was more than 100 µM in each case.
Regarding `CCOC(=O)C(NC(=O)c1ccccc1)(N1CCN(c2cc3c(cc2F)c(=O)c(C(=O)O)cn3C2CC2)CC1)C(F)(F)F` (stereo unspecified), the TGI with CCRF-CEM leukemia is 14.6 µM; in the assay with HOP-62 NSCLC it was more than 100 µM; in the assay with SR leukemia it was 45.2 µM; in the assay on RPMI-8226 leukemia it was 54.1 µM; in the assay on SNB-75 CNS, 69.9 µM; with MDA-N, 46.8 µM. Besides, the TGI in the assay with EKVX NSCLC stood at 67.1 µM; in the assay with UO-31 renal, 63.3 µM; in the assay on NCI-H226 lung, 45.2 µM; in the assay with OVCAR-3 ovarian, 48.6 µM.
For the compound `COc1cccc(CC(=O)N2CCN(CCCc3ccccc3)CC2)c1`, the TGI in the assay on CCRF-CEM leukemia, with HOP-62 NSCLC, with SR leukemia, with RPMI-8226 leukemia, in the assay on TK-10 renal and with NCI-H522 lung was more than 100 µM throughout. Moreover, the TGI in the assay on MDA-N, in the assay on EKVX NSCLC, with UO-31 renal, in the assay on NCI-H226 lung and in the assay on OVCAR-3 ovarian was more than 100 µM each time.
`Cc1ccc(C(=O)NCc2ccccc2)cc1N=NN(C)C`: the TGI with CCRF-CEM leukemia is more than 100 µM; in the assay with HOP-62 NSCLC, more than 100 µM; in the assay on SR leukemia it was more than 100 µM; in the assay with RPMI-8226 leukemia it was more than 100 µM; in the assay on TK-10 renal, more than 100 µM; in the assay with NCI-H522 lung it was 90.1 µM. Besides, the TGI with MDA-N, in the assay with EKVX NSCLC, with UO-31 renal, in the assay with NCI-H226 lung and with OVCAR-3 ovarian was more than 100 µM in each case.
Turning to `O=C1CCSCCC(=O)Nc2ccccc2N1`, the TGI with CCRF-CEM leukemia, in the assay on HOP-62 NSCLC, in the assay with SR leukemia, in the assay on RPMI-8226 leukemia, with TK-10 renal and with NCI-H522 lung was more than 100 µM throughout. Moreover, the TGI in the assay with MDA-N, with EKVX NSCLC, with UO-31 renal, in the assay on NCI-H226 lung and in the assay with OVCAR-3 ovarian was more than 100 µM each time.
As to `COC(=O)[C@@H](NC(=O)N(Cc1ccccc1)C[C@H](CC(C)C)NC(=O)[C@@H](NC(=O)OC(C)(C)C)C(C)C)C(C)C`, the TGI in the assay with HOP-62 NSCLC, with SR leukemia, in the assay with RPMI-8226 leukemia, with SNB-75 CNS, in the assay on TK-10 renal and in the assay on NCI-H522 lung was more than 100 µM each time. Moreover, the TGI in the assay with MDA-N, with EKVX NSCLC, in the assay on UO-31 renal, in the assay on NCI-H226 lung and with OVCAR-3 ovarian was more than 100 µM in each case.
As to `CCOc1cc(NC(C)=O)ccc1C(=O)NNS(=O)(=O)c1ccc(NC(C)=O)cc1`, the TGI was more than 100 µM with CCRF-CEM leukemia; more than 100 µM in the assay with HOP-62 NSCLC; more than 100 µM in the assay on SR leukemia; 86.4 µM in the assay on RPMI-8226 leukemia; more than 100 µM in the assay on SNB-75 CNS; more than 100 µM with NCI-H522 lung. Further, the TGI in the assay with MDA-N is 39.2 µM; in the assay on EKVX NSCLC, more than 100 µM; in the assay on UO-31 renal, more than 100 µM; with NCI-H226 lung it was 89.5 µM; with OVCAR-3 ovarian, more than 100 µM.
Consider `C/C=C\C(CC(=O)NCC(=O)c1c[nH]c2ccccc12)CC(=O)OC` (stereo unspecified), for which the TGI is 96.5 µM in the assay with CCRF-CEM leukemia; more than 100 µM in the assay on HOP-62 NSCLC; more than 100 µM in the assay on SR leukemia; more than 100 µM in the assay on RPMI-8226 leukemia; more than 100 µM with SNB-75 CNS; more than 100 µM in the assay on TK-10 renal. The TGI in the assay on NCI-H522 lung, in the assay with MDA-N, in the assay with EKVX NSCLC, in the assay on UO-31 renal and in the assay on OVCAR-3 ovarian was more than 100 µM each time.
On to `CN1CCN(/C(N)=C(\C#N)C(=O)Nc2ccc(Cl)cc2)CC1`, for which the TGI in the assay with CCRF-CEM leukemia is more than 100 µM; in the assay with HOP-62 NSCLC it was more than 100 µM; in the assay with SR leukemia, 95.3 µM; in the assay on RPMI-8226 leukemia it was more than 100 µM; in the assay on SNB-75 CNS, more than 100 µM; with MDA-N, more than 100 µM. Further, the TGI with EKVX NSCLC, with UO-31 renal, with NCI-H226 lung and in the assay on OVCAR-3 ovarian was more than 100 µM in each case.
`COc1ccc(/C(Cl)=C(\C#N)c2ccc(OC)c(OC)c2)cc1OC`: the TGI was more than 100 µM in the assay with HOP-62 NSCLC; more than 100 µM in the assay with SR leukemia; 60.4 µM with RPMI-8226 leukemia; more than 100 µM in the assay with TK-10 renal; more than 100 µM with NCI-H522 lung; more than 100 µM in the assay on MDA-N. Further, the TGI is 94 µM with EKVX NSCLC, more than 100 µM with UO-31 renal, more than 100 µM in the assay on NCI-H226 lung and more than 100 µM in the assay on OVCAR-3 ovarian.
Consider `CCOC(=O)CCC(NC(=O)OCc1ccccc1)C(=O)NC(CCC(=O)OCC)C(=O)OCC` (stereo unspecified) (Cbz-Glu(OEt)-Glu(OEt)-OEt; configuration not given here), for which the TGI in the assay on CCRF-CEM leukemia, in the assay with HOP-62 NSCLC, with SR leukemia, in the assay with RPMI-8226 leukemia, in the assay on SNB-75 CNS and in the assay on NCI-H522 lung was more than 100 µM each time. The TGI in the assay with MDA-N, in the assay with EKVX NSCLC, in the assay with UO-31 renal, with NCI-H226 lung and with OVCAR-3 ovarian was more than 100 µM each time.
